The record followed here is PMC12040169 (PLOS Biology, 2025).

The term viability denotes a read-out of living cells in per cent, often relative to untreated cells.

The data set is described as follows: in vitro. The conditions noted are these: human, hela cells, % viability.
Take `CC(C)Cn1c(=O)c(C(=O)Nc2cccc(Cl)c2)c(O)c2ccccc21` [CBK159967]: the viability at 28.5 h, 10 µM is 103%.
Take `CC(C)CCNC(=O)c1c(O)c2ccccc2[nH]c1=O` [CBK159975]: the viability at 28.5 h, 10 µM amounted to 91.7%.
The same measure for `COc1cc2[nH]c(=O)c(C(=O)NCCc3ccc(Cl)cc3)c(O)c2cc1OC` [CBK159986]: 91.3%; for `COc1cc2ncc(C(=O)NCc3cccs3)c(O)c2cc1OC` [CBK159998]: 91.9%; for `COCCNC(=O)c1cnc2ccc(OC)cc2c1O` [CBK159999]: 95.9%.
The same measure for `O=C(COc1ccc(Cl)cc1Cl)Nc1ccc2cc[nH]c2c1` [CBK160023]: 92.5%; for `O=C(Cc1ccc(F)cc1F)Nc1ccc2cc[nH]c2c1` [CBK160044]: 102%; for `Cc1cc(Br)ccc1C(=O)Nc1ccc2cc[nH]c2c1` [CBK160046]: 84.1%.
Regarding `O=C(Nc1ccc2cc[nH]c2c1)c1cccnc1` [CBK160053], the viability at 28.5 h, 10 µM worked out at 97.9%.
For `O=C(Nc1cccc2cc[nH]c12)c1cccc(F)c1Cl` [CBK160074] the value was 99.8%; for `Cc1cc(C(=O)Nc2cccc3cc[nH]c23)ccc1Cl` [CBK160078], 96.2%.
The same measure for `NS(=O)(=O)c1ccc(C(=O)Nc2cccc3cc[nH]c23)cc1` [CBK160094]: 94.8%; for `CN1CCC[C@H]1C(=O)Nc1cccc2cc[nH]c12` [CBK160098]: 104%; for `CCOC(=O)C1CCN(C(=O)c2cccnc2NCc2ccc3c(c2)OCO3)CC1` [CBK160106]: 118%.
The same measure for `Cc1ccc2c(c1)CCCN2C(=O)c1cccnc1NCc1ccc2c(c1)OCO2` [CBK160113]: 94.5%.
Consider `O=C(Cc1nnn[nH]1)Nc1cccc(-c2nn[nH]n2)c1` [CBK160122], for which the viability at 28.5 h, 10 µM is 116%.
For `CCOC(=O)c1[nH]c2ccccc2c1NC(=O)Cc1c(Cl)cccc1Cl` [CBK160132] the value was 95.6%; for `CCOC(=O)c1[nH]c2ccccc2c1NC(=O)COc1ccc(Cl)cc1Cl` [CBK160134], 102%; for `CCOC(=O)c1[nH]c2ccccc2c1NC(=O)c1ccc(Cl)cc1Br` [CBK160140], 96.7%.
For `CCOC(=O)c1[nH]c2ccccc2c1NC(=O)CS(=O)(=O)c1ccc(C)cc1` [CBK160162] the value was 94.3%; for `CC(=O)Nc1ccc(-c2ccc(C(=O)N3CCN(C(=O)OCc4ccccc4)CC3)cn2)cc1` [CBK160185], 87.6%; for `CC(=O)Nc1ccc(-c2ccc(C(=O)N3CCN(C(=O)N4CCCC4)CC3)cn2)cc1` [CBK160187], 94.5%.
For `CC(=O)Nc1ccc(-c2ccc(C(=O)N3CCC(Sc4ccccc4)CC3)cn2)cc1` [CBK160188] the value was 99.6%.
In the case of `CS(=O)(=O)c1ccc(-c2ccc(C(=O)N3CCN(C(=O)OCc4ccccc4)CC3)cn2)cc1` [CBK160189], the viability at 28.5 h, 10 µM is 107%.
For `CS(=O)(=O)c1ccc(-c2ccc(C(=O)N3CCN(C(=O)c4ccco4)CC3)cn2)cc1` [CBK160190] the value was 95.2%.
Regarding `Nc1ncc(-c2ccc(C(=O)N3CCOCC3)cc2)cc1C(=O)Nc1ccc(C(F)(F)F)cc1` [CBK160204], the viability at 28.5 h, 10 µM came out at 90.6%.
For `COc1cccc(NC(=O)c2cncc(-c3ccc(C(=O)N4CCOCC4)cc3)c2)c1` [CBK160213] the value was 96.2%; for `NC(=O)c1ccc(NC(=O)c2cncc(-c3ccc(C(=O)N4CCOCC4)cc3)c2)cc1` [CBK160214], 106%; for `O=C(Nc1ccc(F)c(C(F)(F)F)c1)c1cncc(-c2ccc(C(=O)N3CCOCC3)cc2)c1` [CBK160216], 88.2%.
The same measure for `CCOC(=O)N1CCC(NC(=O)c2cnn3c(C)c(Cc4ccccc4)c(C)nc23)CC1` [CBK160293]: 90.7%.
The same measure for `CCOC(=O)C1CCN(C(=O)c2cnn3c(C)c(Cc4cccc(Cl)c4)c(C)nc23)CC1` [CBK160305]: 92.5%.
Turning to `Cc1onc(-c2ccccc2Cl)c1C(=O)N(C)C` [CBK160325], the viability at 28.5 h, 10 µM was found to be 102%.
For `CN1CCC(N2CCN(C(=O)c3cncc(-c4[nH]nnc4-c4ccccc4)c3)CC2)CC1` [CBK160327] the value was 98.3%; for `O=S(=O)(Nc1cccc(-c2nnn[nH]2)c1)c1cc(Br)c(Cl)s1` [CBK160374], 102%; for `CC(=O)c1c(C)oc2ccc(O)c(CN3CCOCC3)c12` [CBK160396], 104%.
The same measure for `Oc1c(Br)cc2oc3c(c2c1CNc1ccccc1)CCCC3` [CBK160397]: 103%; for `CC(C)NCc1c(O)c(Br)cc2oc3c(c12)CCCC3` [CBK160400]: 96.5%.
For `CCc1onc(-c2ccccc2)c1C(=O)NCCO` [CBK160434] the value was 89.8%; for `Cc1onc(-c2c(Cl)cccc2Cl)c1C(=O)N(C)C` [CBK160437], 97%.
For the molecule `CS(=O)(=O)c1ccc(-c2ccc(C(=O)N3CCN(Cc4ccc(F)c(F)c4)CC3)nc2)cc1` [CBK160485], the viability at 28.5 h, 10 µM stood at 87.4%.
For `CCN(CC)CCN(CCc1ccc(OC)c(OC)c1)C(=O)Nc1ccc(Cl)cc1` [CBK160510] the value was 96.6%.
For `O=C(C(Cc1ccccc1)c1ccccc1)N1CCC2(CCN(CCCCOc3ccccc3)C2)C1` (stereo not shown) [CBK160643] the value was 101%; for `CC(=O)NCc1cccc(-c2cc(C(=O)Nc3ccc4c(c3)OCCO4)cnc2-c2cccnc2)c1` [CBK160658], 88.6%; for `O=C(COc1ccccc1)N1CCC(Oc2nccnc2OCc2ccc(Cl)c(Cl)c2)CC1` [CBK160718], 99%.
For `O=C(c1ccc(F)cc1)N1CCC(Oc2nccnc2OCc2ccc(Cl)c(Cl)c2)CC1` [CBK160721] the value was 85.9%; for `COc1cc2nc(N3CCC4(CCN(C(=O)C(c5ccccc5)C(C)C)C4)C3)nc(N)c2cc1OC` (stereo not shown) [CBK160790], 76.3%; for `Cc1cc(C(=O)N2CCN(C(=O)c3cn(Cc4ccc(S(C)(=O)=O)cc4)nn3)CC2)n(C)n1` [CBK160824T], 110%.
Consider `CCCOc1ccc(OC(=O)COc2ccccc2)cc1` [CBK160853], for which the viability at 28.5 h, 10 µM is 93.3%.
For `CCCC[C@H]1CC[C@H](C(=O)Oc2ccc(OC(C)C(=O)O)cc2)CC1` (stereo partly shown) [CBK160854] the value was 93.8%; for `CN(C)C(=O)N1CCN(C(=O)c2cn(Cc3cccc(S(C)(=O)=O)c3)nn2)CC1` [CBK160969T], 89.7%.
For `O=C(Cc1csc(-c2ccc(Cl)cc2)n1)NCC1CCCN1` (stereo not shown) [CBK160982], the viability at 28.5 h, 10 µM amounted to 106%.
The same measure for `COC(=O)CCC(=O)N1CCCC2(CCN(C(=O)c3ccoc3)C2)C1` (stereo not shown) [CBK160988]: 100%; for `CCOC(=O)C1(C2CCCCC2)CCN(C(=O)CN2C(=O)CSC2=O)CC1` [CBK160993]: 97.1%; for `CC(C)OC(=O)N1CCN(C(=O)c2cn(Cc3cccc(S(C)(=O)=O)c3)nn2)CC1` [CBK160994T]: 88.5%.
The same measure for `O=C(NCCc1c[nH]cn1)c1ccccc1-n1cccc1` [CBK161000]: 92.4%.
